Test results reported in patent US20230270753A1, “COMBINATIONS OF GABAA ALPHA 5 AGONISTS AND SV2A INHIBITORS AND METHODS OF USING IN THE TREATMENT OF COGNITIVE IMPAIRMENT” (AGENEBIO, INC., priority 2020, published 2023).
Where two headings read alike, the source gives them in different places.

Tests used:
Assay type in all cases: in vivo, rat
[1] = test system: Aged-Impaired rats (AI rats); test: Radial Arm Maze task, 2-hr delay, acute brivaracetam or seletracetam (Example 4); settings: doses 0.0625-4 mg/kg i.p., 30-40 min prior to test; repeated measures ANOVA
Text: All rats were screened in a standardized assessment of spatial cognition prior to the studies with experimental treatments. That background assessment used a well-established Morris Water Maze protocol. The MWM protocol was substantially the same as the one described in Example 1. See, also, Gallagher et al., Behav. Neurosci. 107:618-626, (1993). Briefly, the rats were trained for eight days (three trials per day) to locate a camouflaged escape platform that remained at the same location throughout training in a water maze. Every sixth trial consisted of a probe trial (free swim with no escape platform) that served to assess the development of a spatially localized search for the escape platform. During these probe trials, a learning index was generated from the proximity of the rat to the escape platform and was used to define impairment in the aged rats. The learning index is the sum of weighted proximity scores obtained during probe trials, with low scores reflecting a search near the escape platform and high scores reflecting searches farther away from the platform (Gallagher et al, 1993). Cue training (visible escape platform) occurred on the last day of training to test for sensorimotor and motivational factors independent of spatial learning. […]

[2] = test system: aged-impaired rats; test: Radial arm maze, 5-hr delay, acute Compound 1 via PO (Example 7); settings: Compound 1 10 mg/kg PO 30-40 min before information trial
Text: All rats were screened in a standardized assessment of spatial cognition before the commencement of drug studies. The background assessment used a well-established Morris water maze protocol as described in detail elsewhere (Gallagher et al, 1993). Briefly, the rats were trained for 8 days (three trials per day) to locate a camouflaged escape platform that remained at the same location throughout training in a water maze. Every sixth trial consisted of a probe trial (free swim with no escape platform) that served to assess the development of a spatially localized search for the escape platform. During these probe trials, a learning index was generated from the proximity of the rat to the escape platform and was used to define impairment in the aged rats. The learning index is the sum of weighted proximity scores obtained during probe trials, with low scores reflecting a search near the escape platform and high scores reflecting searches farther away from the platform (Gallagher et al, 1993). Cue training (visible escape platform) occurred on the last day of training to test for sensorimotor and motivational factors independent of spatial learning. Aged rats with impaired spatial memory performance (i.e., those with learning index scores outside the young ‘normative’ range) but successful cued training performance were used for the studies as described below. […]

[3] = test system: aged-impaired rats
[4] = test system: aged-impaired rats; test: Water maze, acute and chronic Compound 1 (Example 7); settings: Compound 1 10 mg/kg IP
Text: Rats were trained and tested in a novel water maze environment to assess the effect of the treatments. The water maze used here was housed in a different room and was surrounded by curtains with a novel set of patterns relative to the maze used for initial assessment of cognitive status. The training and testing protocol used was identical to the spatial learning-activated protocol described in Haberman et al., (2008, Proceedings of the National Academy of Sciences USA, 105, 10601-10606). The task required rats to swim to a […] escape platform at a fixed location in the presence of spatial cues for 8 training trials with an inter-trial interval of 8 min. An hour after the last training trial, rats were given a probe test in the absence of the escape platform (free swim) to assess the memory of the platform location as measured by time spent searching at the target location.
To assess the acute and chronic effects of Compound 1 treatment, rats received 15-16 days of drug injections with assessment on the water maze on the first day (acute effect) and last day (chronic effect) of treatment. Different surrounding spatial cues and escape location in the water maze were used for the initial and subsequent assessments. Compound 1 was given at 10 mg/kg using intraperitoneal injection (IP) at a volume of 1 ml/kg. […]

[5] = test system: memory-impaired aged rats; test: Water maze after chronic brivaracetam by osmotic mini-pump (Example 4); settings: brivaracetam 2 mg/kg/day by osmotic mini-pump, 14 days, probe test
Procedure: The radial arm maze experiments used acute administration of seletracetam (0-4 mg/kg), brivaracetam (0-4 mg/kg), or saline vehicle given by intraperitoneal injection (in a volume of 1 ml/kg) 30-40 min prior to test sessions.
Rats were trained and tested in a novel water maze environment to assess the effect of drug treatment. The water maze used here was housed in a different building and was surrounded by curtains with a novel set of patterns relative to the maze used for initial assessment of cognitive status. The training protocol consisted of 6 trials per day for 2 days to locate a submerged escape platform. On each trial, a rat was released in the maze from one of four equally spaced starting positions around the perimeter of the pool. The starting position varied from trial to trial. […] The rat was then removed from the platform and placed in a holding cage for another 40 s before the next trial. Approximately 24 hr after the last training trial, a probe test in the absence of the escape platform was given to assess spatial memory.

| SMILES | number of errors in the retention phase after the 2-hr delay [1] | number of errors in the radial arm maze vs vehicle [2] | efficacy of Compound 1 on its own in the radial arm maze ([3]; Compound 1 2.5 mg/kg IP alone) | efficacy of Compound 1 on its own in the radial arm maze ([3]; Compound 1 5 mg/kg IP alone) | time spent in the target quadrant of the Morris Water Maze ([4]; acute (first day of treatment)) | time spent in the target quadrant of the Morris Water Maze ([4]; chronic (last day of 15-16 days of injections)) | time in the target annulus vs vehicle-treated rats [5] | time in the target quadrant vs vehicle-treated rats [5] | spatial bias for the target quadrant compared to the other control quadrants ([5]; n=3/group) |
| --- | --- | --- | --- | --- | --- | --- | --- | --- | --- |
| CC[C@@H](C(N)=O)N1C[C@H](C=C(F)F)CC1=O [seletracetam, (2S)-2-[(4S)-4-(2,2-difluoroethenyl)-2-oxopyrrolidin-1-yl]butanamide] | significant effect as a function of dose |  |  |  |  |  |  |  |  |
| COCc1nnc2n1Cc1c(C#Cc3cnc(OC)s3)ncn1-c1ccc(Cl)cc1-2 [Compound 1] |  | fewer errors | subtherapeutic | subtherapeutic | spent more time in the target quadrant | spent more time in the target quadrant |  |  |  |
| CCC[C@@H]1CC(=O)N([C@@H](CC)C(N)=O)C1 [brivaracetam, (2S)-2-[(4R)-2-oxo-4-propylpyrrolidin-1-yl]butanamide] | significant effect as a function of dose |  |  |  |  |  | significantly more time in the target annulus | significantly more time in the target quadrant | significant spatial bias |
